Source: the supplement of paper PMC10307832

Columns and labels:
Assay in all cases: relative viability (nuclei count vs DMSO), 5 days (fraction); higher = more cells survive
[1] = compound: CN(C)C/C=C/C(=O)Nc1cc2c(Nc3ccc(F)c(Cl)c3)ncnc2cc1O[C@H]1CCOC1 [Afatinib] + O=C(CCCCCCC(=O)Nc1ccccc1)NO [Vorinostat] (partner 1 µM)
Procedure, shortened: (§1)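 Medians of duplicate plates are given as relative viability. That measure is the nuclei count in treated wells divided by the count in vehicle wells. Counts were taken on 4× images of lung cancer cell lines in 1536-well plates, 5 days after pin-tool dosing the day after seeding with one drug alone or a fixed anchor-drug dose plus five library-drug doses (not always all listed) in √10 steps.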

[2] = compound: CN(C)C/C=C/C(=O)Nc1cc2c(Nc3ccc(F)c(Cl)c3)ncnc2cc1O[C@H]1CCOC1 [Afatinib] + Nc1nc2[nH]cc(CCc3ccc(C(=O)N[C@@H](CCC(=O)O)C(=O)O)cc3)c2c(=O)[nH]1 [Pemetrexed] (partner 0.2 µM)
Procedure, shortened: as §1

[3] = compound: CN(C)C/C=C/C(=O)Nc1cc2c(Nc3ccc(F)c(Cl)c3)ncnc2cc1O[C@H]1CCOC1 [Afatinib] + Cc1nc(Nc2ncc(C(=O)Nc3c(C)cccc3Cl)s2)cc(N2CCN(CCO)CC2)n1 [Dasatinib] (partner 0.075 µM)
Procedure, shortened: as §1

[4] = compound: CN(C)C/C=C/C(=O)Nc1cc2c(Nc3ccc(F)c(Cl)c3)ncnc2cc1O[C@H]1CCOC1 [Afatinib] + CC(=O)c1c(C)c2cnc(Nc3ccc(N4CCNCC4)cn3)nc2n(C2CCCC2)c1=O [Palbociclib] (partner 0.5 µM)
Procedure, shortened: as §1

Cell Line	relative viability ([1]; first compound 0.005 µM)	relative viability ([1]; first compound 0.01581 µM)	relative viability ([1]; first compound 0.05 µM)	relative viability ([1]; first compound 0.1581 µM)	relative viability ([1]; first compound 0.5 µM)	relative viability ([2]; first compound 0.005 µM)	relative viability ([2]; first compound 0.01581 µM)	relative viability ([2]; first compound 0.05 µM)	relative viability ([2]; first compound 0.1581 µM)	relative viability ([2]; first compound 0.5 µM)	relative viability ([3]; first compound 0.005 µM)	relative viability ([3]; first compound 0.01581 µM)	relative viability ([3]; first compound 0.05 µM)	relative viability ([3]; first compound 0.1581 µM)	relative viability ([3]; first compound 0.5 µM)	relative viability ([4]; first compound 0.005 µM)	relative viability ([4]; first compound 0.01581 µM)	relative viability ([4]; first compound 0.05 µM)	relative viability ([4]; first compound 0.1581 µM)	relative viability ([4]; first compound 0.5 µM)
NCI-H2087	0.658	0.625	0.968	0.91	0.592	0.763	0.668	0.664	0.671	0.652	0.992	0.804	0.825	0.852	0.715	0.232	0.185	0.226	0.253	0.191
NCI-H2126	0.732	0.683	0.617	0.43	0.481	0.715	0.66	0.623	0.469	0.45	0.573	0.532	0.439	0.394	0.401	0.342	0.338	0.364	0.342	0.314
NCI-H2170	0.618	0.697	0.271	0.201	0.2	0.251	0.245	0.25	0.214	0.212	0.352	0.281	0.157	0.131	0.155	0.389	0.357	0.275	0.139	0.116
NCI-H2228	0.928	0.444	0.566	0.698	0.462	0.283	0.306	0.334	0.298	0.322	0.619	0.56	0.55	0.41	0.634	0.884	0.774	0.705	0.749	0.744
NCI-H2342	0.706	0.628	0.729	0.695	0.696	0.763	0.762	0.706	0.777	0.747	0.315	0.281	0.295	0.305	0.297	0.528	0.497	0.473	0.424	0.475
NCI-H2347	0.628	0.73	0.587	0.524	0.565	0.401	0.414	0.426	0.45	0.392	0.34	0.318	0.453	0.269	0.288	0.415	0.446	0.445	0.418	0.432
NCI-H2405	1.2	0.848	0.976	0.953	0.938	1.09	1.14	1.12	1.01	0.953	0.243	0.201	0.207	0.219	0.196	0.555	0.562	0.57	0.513	0.508
NCI-H3122	1.1	1	1.06	0.956	0.944	0.206	0.196	0.199	0.187	0.187	0.95	0.778	0.675	0.739	0.553	0.179	0.184	0.174	0.182	0.187
